# Experimental data: ChEMBL document CHEMBL5344435 (J Med Chem, 2024)
# Assay: in vivo
# Conditions: C57BL/6J, mouse, po, 10 mg/kg
smiles,measurement,value
[O-][n+]1cc(O)cc(CCCc2ccc(Cl)c(C(F)(F)F)c2)c1,Cmax at 24 h,102 ng/mL
